In US9782346B2, “Biodegradable ocular implant” (Nanyang Technological University, priority 2010, dated 2017):

Columns and labels:
[1] = Sustained drug release from PLC films / sandwich constructions; format: physicochemical
[2] = tested on: rabbit eyes; conditions: in vivo
Method: We obtained approval from the SingHealth Institute Animal Care and Use Committee (IACUC Singhealth Approval Number 2009/SHS/478) and all procedures were performed in accordance with the ARVO Statement for the Use of Animals in Ophthalmic and Vision Research. Nine New Zealand white rabbits (18 eyes) were used aged 4-6 months old with a weight range of 2-2.5 kg each. Each rabbit was anesthetized with intraperitoneal injection of ketamine hydrochloride (35-50 mg/kg) and Xylazil (5-10 mg/kg). After the animal had been adequately anaesthetized, the eye was cleaned with povidone-iodine (10%) and draped with sterile cloth. […]
Visual inspection of the operated eyes was conducted daily following surgery. […] All clinical and ocular observations were recorded on a chart. The test animals were also monitored for any gross changes such as eye discharge, squinting and, ocular discomfort. […]
Anterior segment photographs and anterior segment optical coherence tomography (AS-OCT, Visante OCT, Carl Zeiss Meditec Inc., Germany) of the implanted eyes was performed at monthly intervals. […] The site of conjunctival elevation from the microfilm was determined by the location of a light reflex over the conjunctiva during image acquisition. In cases where the light reflex was absent, the observer manually assessed the surface of the microfilm to select a radius that contained elevation. […]

Compound `CC(C)OC(=O)CCC/C=C\C[C@@H]1[C@@H](CC[C@@H](O)CCc2ccccc2)[C@H](O)C[C@@H]1O` [Latanoprost] has a Duration of delivery ([1]; from PLC films) of 10 days.

In the case of `C[C@]12C=CC(=O)C=C1CC[C@@H]1[C@@H]2[C@@H](O)C[C@@]2(C)[C@H]1CC[C@]2(O)C(=O)CO` [Prednisolone], the “Duration of controlled release” value ([1]; from PLC (70/30 copolymer of PLA and PCL)) is reported as 100 days.

With `CCCC(CCC)C(=O)O` [valproic acid] the “Duration of controlled release” value ([1]; 1% and 2% sandwich constructions (multi-layered implant)) was 20 days.

For “Poly(d,l-lactide-co-e-caprolactone) [PLC70/30]”, the “mean increase in vascularity grade” value [2] was 15±0.6% and the “mean percent increase in ocular score” value [2] was 15±0.6%.
